pKd: −log10 of the molar value.

The experiment deals with Galectin-3 (Homo sapiens, UniProt P17931). Description: Fluorescence Anisotropy Assay: The affinity of Example 1-71 for galectins were determined by a fluorescence anisotropy assay where the compound was used as an inhibitor of the interaction between galectin and a fluorescein tagged saccharide probe.
Galectin-3, sequence (P17931 whole entry): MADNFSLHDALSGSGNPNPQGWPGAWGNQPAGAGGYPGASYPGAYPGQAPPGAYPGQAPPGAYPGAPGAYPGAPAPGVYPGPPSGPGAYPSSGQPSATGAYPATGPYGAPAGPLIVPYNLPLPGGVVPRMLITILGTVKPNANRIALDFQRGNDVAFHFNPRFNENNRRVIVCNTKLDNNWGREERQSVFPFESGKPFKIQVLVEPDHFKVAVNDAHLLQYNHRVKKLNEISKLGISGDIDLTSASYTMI
As for `COC1[C@@H](Sc2cc(Br)cnc2C(=O)N2CCC2)OC(CO)[C@H](O)[C@@H]1n1cc(-c2ccc(Cl)c(F)c2)nn1` (some centres undefined), the pKd was 8.15.
Next, `CCOC1[C@@H](Sc2cc(Br)cnc2C(=O)N2CCC2)OC(CO)[C@H](O)[C@@H]1n1cc(-c2ccc(Cl)c(F)c2)nn1` (some centres undefined): 8.10.
With `CCOC1[C@@H](Sc2cc(Cl)cnc2C(=O)N2CCC2)OC(CO)[C@H](O)[C@@H]1n1cc(-c2ccc(Cl)c(F)c2)nn1` (some centres undefined) the figure was 7.77.
With `CCOC1[C@@H](Sc2cc(Cl)cnc2C(=O)N2CCC2)OC(CO)[C@H](O)[C@@H]1n1cc(-c2cc(F)c(Cl)c(F)c2)nn1` (some centres undefined) the figure was 7.96; with `COC1[C@@H](Sc2cc(Cl)cnc2C(=O)N2CCC2)OC(CO)[C@H](O)[C@@H]1n1cc(-c2cc(F)c(Cl)c(F)c2)nn1` (some centres undefined), 7.80; with `CCOC1[C@@H](Sc2cc(Cl)cnc2C(=O)N2CCC2)OC(CO)[C@H](O)[C@@H]1n1cc(-c2cc(F)c(F)c(F)c2)nn1` (some centres undefined), 7.68.
For the compound `COC1[C@@H](Sc2cc(Cl)cnc2C(=O)N2CCC2)OC(CO)[C@H](O)[C@@H]1n1cc(-c2cc(F)c(F)c(F)c2)nn1` (some centres undefined), the pKd is 8.00.
As for `COC1[C@@H](Sc2cc(Br)cnc2C(=O)N2CCC2)OC(CO)[C@H](O)[C@@H]1n1cc(-c2cc(F)c(F)c(F)c2)nn1` (some centres undefined), the pKd is 8.22.
With `COC1[C@@H](Sc2cc(Cl)cnc2C(=O)N2CCC2)OC(CO)[C@H](O)[C@@H]1n1cc(-c2ccc(Cl)c(F)c2)nn1` (some centres undefined) the figure was 7.68.

As a reminder, the pKd is the negative decadic logarithm of the Kd, by convention in mol/L. A high value points to a low Kd.

The record behind these values is ChEMBL document CHEMBL5729330, “Galactoside inhibitor of galectins” (2022).
